Measurements from patent US11643419B2, “Compositions and methods for the treatment of xerostomia” (Cellix Bio Private Limited, priority 2016, dated 2023).
≈ marks a conversion by molar mass, not a printed value. Where two headings read alike, the source gives them in different places.

Tests used:
Candida Species [1] = experiment: MIC against Candida Species; type: cell-based; details: printed conversion of 0.45 μmoles/ml
[2] = tested on: oral pathogenic microorganisms; details: cited from earlier work; for antimicrobial activity (in words): among long-chain fatty acids / against various oral microorganisms
C. albicans = details: cited from earlier work
Candida Species [3] = details: cited from earlier work

## CCCCC/C=C\C/C=C\CCCCCCCC(=O)O [Linoleic acid]
Candida Species [1]
  MIC: 0.13 µg/mL (≈ 0.464 µM)
[2]
  antimicrobial activity (in words): greatest antimicrobial activity
[2]; linoleic acid
  bactericidal at a concentration of: 25 µg/mL
C. albicans
  activity against C. albicans: < 40%
Candida Species [3]
  MIC: 450 µM (≈ 126 µg/mL)

## CCCCC/C=C\C/C=C\C/C=C\C/C=C\CCCC(=O)O [arachidonic acid]
[2]
  antimicrobial activity (in words): greatest antimicrobial activity

## CCCCCCCCCCCCCCCC(=O)O [palmitic acid]
[2]
  antimicrobial activity (in words): greatest antimicrobial activity

## CCCCCC/C=C\CCCCCCCC(=O)O [palmitoleic acid]
[2]
  antimicrobial activity (in words): greatest antimicrobial activity

## CCCCC/C=C\C/C=C\C/C=C\CCCCC(=O)O [GLA, gamma linoleic acid]
[2]
  antimicrobial activity (in words): antimicrobial activities
[2]; listed as 7-linoleic acid
  antimicrobial activity (in words): greatest antimicrobial activity
[2]; listed as gamma linoleic acid
  antimicrobial activity (in words): significant anti-microbial activity
[2]; n-6 fatty acids GLA
  bactericidal at a concentration of: 25 µg/mL
